Assay results: patent US11590110B2, “Compositions and methods for reactivating latent immunodeficiency virus using a GSK-3 inhibitor” (priority 2017, dated 2023)

What was measured:
[1] = also in the brain; cited from earlier work
[2] = system: HIV-specific CD8+ T cells; assay: Example 5: granzyme B cytotoxicity assay and infected CD4+ T-cell elimination (ICE); type: cell-based, human; conditions: 1 μM for 6 days
Description: PBMCs were co-incubated with HIVSF162-infected autologous CD4^+ T-cell targets (E:T 25:1)+/−tideglusib at a final concentration of […] in 96 deep (1 mL) well plates for 6 days. As before, cultured day 6 cells were then labeled with immuno-magnetic beads (CD8 T-cell Isolation Kit II, Miltenyi Biotec) prior to negative selection of CD8^+ T-cells by magnetic automated cell sorting (ref Migueles et al., 2008, 2009). Cytotoxic responses were measured against LIVE/DEAD Fixable Violet Stain (Molecular Probes, Invitrogen Detection Technologies, Eugene, Oreg., USA)-labeled HIVSF162-infected or uninfected autologous CD4^+ T-cell targets in assays examining GrB target cell activity and infected CD4^+ T-cell elimination (ICE) as previously reported (ref Migueles et al., 2008, 2009). Cells were analyzed on a FACSAria multi-laser cytometer (Becton-Dickinson) with FACSDiva software. Gates were drawn on labeled CD4^+ T-cell targets and 5,000-15,000 events were collected. Color compensations were performed using single-stained samples for each of the fluorochromes used. Data were analyzed using FlowJo software (TreeStar, San Carlos, Calif.).

CD4+ T cells = assay: Example 5: basal and compensatory glycolysis, Seahorse glycolytic rate assay; type: cell-based, human; conditions: 1 μM; 24 hours
Description: ECAR was determined using the Seahorse SF Glycolytic Rate Assay Kit (Agilent, 103344-100) and a Seahorse XF96 Extracellular Flux Analyzer (Seahorse Bioscience). Resting (2×10^5 per well) were seeded onto Cell-Tak-coated wells (354240; Corning) in buffered Seahorse XF RPMI medium (Agilent, 103576-100) supplemented with 10 mM glucose, 2 mM L-glutamine, 1 mM pyruvate and 5 mM HEPES (pH 7.4). Measurements were obtained under basal conditions and after adding 0.5 μM rotenone/antimycin A (103015-100; Seahorse Bioscience), and 2-deoxy-d-glucose (2-DG) at a final well concentration of 50 mM (Agilent Technologies). Basal glycolysis and Proton Efflux Rate (PER) were calculated according to. Lactate measurements were detected using the Cayman L-Lactate Assay Kit (Cayman Chemical, 70010) In brief, 24 hours post treatment, supernatant from 200.000 primary resting and activated CD4^+ T cells was harvested and measured according to the manufacturer's recommendation.

[3] = system: latent HIV-1 in GALT cultures from HIV-positive donors on suppressive ART; assay: Example 5: latency reversion in gut-associated lymphoid tissue (GALT) cultures, ddPCR; type: cell-based
Description: PBMCs and CD4^+ T cells from HIV-positive donors were cultured and treated in the presence of 5 μM saquinavir. For gut-associated lymphoid tissue (GALT) cells, to remove the epithelium and epithelial cells, 30 tissue biopsy tissue pieces were incubated in pre-warmed buffer containing 10 mM DTT, 5 mM EDTA, 10 mM HEPES and 5% FBS for 20 minutes at 37° C. under continuous rotation, vortexed and the supernatant aspirated. Tissue pieces were then incubated for a second time in the same pre-warmed buffer for a further 20 minutes at 37° C. under continuous rotation. The sample was again vortexed, and then rinsed for 20 minutes at 37° C. under continuous rotation with RMPI, 10 mM HEPES and 5% FBS. To then isolate lymphocytes from the lamina propria, a second, pre-warmed buffer containing RPMI, 10 mM HEPES, 7.5 µg/ml DNAse and 5% FBS was applied to the tissue pieces, and these were again incubated for 20 minutes at 37° C. under continuous rotation. […]
5 million resting CD4^+ T lymphocytes were plated and either left unstimulated (media alone plus DMSO), stimulated with anti-CD3/CD28 coated or incubated with LRAs for 48 hours. […] Subsequently, ddPCR was applied to quantify pre-amplified cDNA. […] Finally, samples were amplified on a BioRad C1000 Thermocycler and analyzed using a BioRad QX100 ddPCR Reader. […]

[4] = system: patient-derived CD4+ T cells; assay: Example 2: viability of patient-derived CD4+ T cells (Zombie Violet, flow cytometry); type: cell-based, human; conditions: 48 h incubation
Description: Following treatment with Tideglusib, the CD4^+ T cells were spun down and stained with the cell-death marker Zombie Violet (BioLegend). Briefly, cells were harvested 48 hours after LRA treatment, incubated with the Zombie dye for 15 minutes at room temperature, than washed and fixed with 1% PFA for 30 minutes; then washed again and analyzed via flow cytometer. Percentage of live (Zombie negative (−)) T Cells (CD3+) was normalized to the DMSO-treated control (DMSO or “untreated”=1).

[5] = system: latent HIV in CD4+ T cells of HIV-infected patients on suppressive anti-retroviral therapy; assay: Example 7: reversal of HIV latency in patient CD4+ T cells, extracellular viral RNA by digital droplet PCR

O=c1sn(-c2cccc3ccccc23)c(=O)n1Cc1ccccc1 [Tideglusib, 4-benzyl-2-(naphthalen-1-yl)-1,2,4-thiadiazolidine-3,5-dione]
tissue-permeability [1]: high tissue-permeability also in the brain
CD8+ T-mediated infected CD4+ T-cell elimination (ICE) ([2]; 1 hour with infected CD4+ T targets): did not alter production of granzyme B (GrB) or prevent CD8^+ T-mediated infected CD4^+ T-cell elimination (ICE)
production of granzyme B (GrB) ([2]; PBMCs of HIV-positive progressors): did not alter production of granzyme B
basal glycolysis, mean value (CD4+ T cells): 17.43 pmol/min
compensatory glycolysis, response to Rot/AA (CD4+ T cells): did not result in an increase
virus-associated mRNA in culture supernatant, median value ([3]; 1 μM, 24 hours, relative to untreated control): 20.69 fold
virus release vs untreated control ([3]; GALT cultures): over 20 fold
percentage of viable CD4+ T cells vs untreated control [4]: Substantially all of the cells remained viable
latency reversing activity, in words ([5]; at equivalent doses): comparable activity
induction of latent virus production (virus-associated RNA over DMSO-treated control) ([5]; highest concentration): ~40 fold
subjects that did not respond ([5]; highest dose): 1 of 8
